Our source for the IC50 values is US12692223B2, “Phenyl-sulfamoyl-benzoic acid derivatives as ERAP1-modulators” (GREY WOLF THERAPEUTICS LIMITED, priority 2021, dated 2026).

The target in the experiment is T1, ERAP1 (Homo sapiens, UniProt Q9NZ08).
T1 construct: Purified ERAP1(37-941)-10His (ERAP1)
Description: ERAP1 mediated hydrolysis of an amide substrate measured in a biochemical system (10-mer inhibition assay). To be noted: purified ERAP1(37-941)-10His; 10-mer substrate; 23° C. for 1 h; excitation 279 nm, emission 355 nm; read-out: IC50 vs Decapeptide WRVYEKC(Dnp)ALK-acid (where Dnp is Dinitrophenyl maleimide) (10-mer). As to the method: Biological Assay 1: ERAP1 Mediated Hydrolysis of an Amide Substrate Measured in a Biochemical System
• 1× Assay buffer (AB): 25 mM Bis-tris propane, 0.05% w/v • Hydroxypropylmethylcellulose pH 7.75 made with Optima grade water • Decapeptide WRVYEKC(Dnp)ALK-acid (where Dnp is Dinitrophenyl maleimide) (10-mer) • L-Leucine 7-amido-4-methylcoumarin (L-AMC) • Purified ERAP1(37-941)-10His (ERAP1) Assay Procedure:
12.5 μL ERAP1 enzyme in 1×AB was combined with 250 nL test compound in DMSO. 12.5 μL of either 240 μM L-AMC in 1×AB or 100 μM 10-mer in 1×AB was added to the reaction and incubated at 23° C. for 1 h. For detection, plates were read at excitation 365 nm and emission 442 nm (L-AMC) or excitation 279 nm and emission 355 nm (10-mer). Compound IC50 was determined using a 4-parameter equation.

Molecules are shown by their SMILES.

T1 sequence (Q9NZ08 37-941): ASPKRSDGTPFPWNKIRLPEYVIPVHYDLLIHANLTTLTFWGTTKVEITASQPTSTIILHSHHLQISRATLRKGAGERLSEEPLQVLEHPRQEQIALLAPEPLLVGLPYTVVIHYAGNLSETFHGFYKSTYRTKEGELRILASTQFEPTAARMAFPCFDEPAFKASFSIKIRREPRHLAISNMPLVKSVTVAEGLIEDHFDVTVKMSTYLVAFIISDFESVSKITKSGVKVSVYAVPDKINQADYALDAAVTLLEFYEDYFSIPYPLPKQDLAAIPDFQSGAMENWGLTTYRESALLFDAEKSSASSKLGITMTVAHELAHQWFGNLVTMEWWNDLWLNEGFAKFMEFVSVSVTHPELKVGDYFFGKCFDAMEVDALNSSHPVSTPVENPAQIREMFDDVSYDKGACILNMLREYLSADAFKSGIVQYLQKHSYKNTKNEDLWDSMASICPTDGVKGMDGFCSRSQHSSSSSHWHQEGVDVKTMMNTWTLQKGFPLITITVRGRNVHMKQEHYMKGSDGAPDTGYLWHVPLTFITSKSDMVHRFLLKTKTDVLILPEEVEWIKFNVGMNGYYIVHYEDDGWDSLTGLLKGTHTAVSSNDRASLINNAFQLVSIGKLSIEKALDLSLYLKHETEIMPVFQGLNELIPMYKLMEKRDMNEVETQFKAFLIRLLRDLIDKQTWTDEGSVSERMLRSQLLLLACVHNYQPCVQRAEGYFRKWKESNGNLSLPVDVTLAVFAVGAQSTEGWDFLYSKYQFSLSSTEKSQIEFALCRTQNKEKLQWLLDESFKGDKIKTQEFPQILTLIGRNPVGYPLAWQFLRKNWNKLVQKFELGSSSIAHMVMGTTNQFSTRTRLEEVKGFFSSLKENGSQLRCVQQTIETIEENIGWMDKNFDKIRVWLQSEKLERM

As a reminder, the IC50 is the concentration that gives 50% inhibition. In the case of `CC1CC(Oc2cc(Cl)c(C#N)cc2NS(=O)(=O)c2cc(C(=O)O)ccc2C2CC2)C1` (mixture of isomers) [Example 88, 3-(N-(4-chloro-5-cyano-2-(3-methylcyclobutoxy)phenyl)sulfamoyl)-4-cyclopropylbenzoic acid], the IC50 was below 1 nM.

For the molecule `CC1CC(COc2cc(Cl)c(C#N)cc2NS(=O)(=O)c2cc(C(=O)O)ccc2C2CC2)C1` (mixture of isomers) [Example 89, 3-(N-(4-chloro-5-cyano-2-((3-methylcyclobutyl)methoxy)phenyl)sulfamoyl)-4-cyclopropylbenzoic acid], the half-inhibitory concentration (IC50) was below 1 nM.

Consider `N#Cc1cc(NS(=O)(=O)c2cc(C(=O)O)ccc2C2CC2)c(OC2CCC2C2CC2)cc1Cl` (mixture of isomers) [Example 108, 3-(N-(4-chloro-5-cyano-2-(2-cyclopropylcyclobutoxy)-phenyl)sulfamoyl)-4-cyclopropylbenzoic acid], for which the IC50 was below 1 nM.

For the molecule `COC1CCC(Oc2cc(Cl)c(C#N)cc2NS(=O)(=O)c2cc(C(=O)O)ccc2C2CC2)C1` (mixture of isomers) [Example 124, 3-(N-(4-chloro-5-cyano-2-((3-methoxycyclopentyl)oxy)phenyl)sulfa-moyl)-4-cyclopropylbenzoic acid], the IC50 was below 1 nM.

As for `N#Cc1cc(NS(=O)(=O)c2cc(C(=O)O)ccc2C2CC2)c(OC2CCCC2O)cc1Cl` (racemic) [Example 59, 3-(N-(4-chloro-5-cyano-2-((trans-2-hydroxycyclopentyl)oxy)phenyl)sulfamoyl)-4-cyclopropylbenzoic acid], the IC50 was below 1 nM.

As to `N#Cc1cc(NS(=O)(=O)c2cc(C(=O)O)ccc2C2CC2)c(OC2CCC(C#N)C2)cc1Cl` (racemic) [Example 72, 3-(N-(4-chloro-5-cyano-2-((trans-3-cyanocyclopentyl)oxy)phenyl)sulfamoyl)-4-cyclopropylbenzoic acid], the concentration for half-maximal inhibition (IC50) is below 1 nM.

As to `N#Cc1cc(NS(=O)(=O)c2cc(C(=O)O)ccc2C2CC2)c(OC2CCC(C#N)C2)cc1Cl` (racemic) [Example 74, 3-(N-(4-chloro-5-cyano-2-((cis-3-cyanocyclopentyl)oxy)phenyl)sulfamoyl)-4-cyclopropylbenzoic acid], the half-inhibitory concentration (IC50) was below 1 nM.

Turning to `C#CC1CCCC1Oc1cc(Cl)c(C#N)cc1NS(=O)(=O)c1cc(C(=O)O)ccc1C1CC1` (racemic) [Example 84, 3-(N-(4-chloro-5-cyano-2-((trans-2-ethynylcyclopentyl)oxy)phenyl)sulfamoyl)-4-cyclopropylbenzoic acid], the 50% inhibitory concentration (IC50) is below 1 nM.

In the case of `COC1CCCC1Oc1cc(Cl)c(C#N)cc1NS(=O)(=O)c1cc(C(=O)O)ccc1C1CC1` (racemic) [Example 85, 3-(N-(4-chloro-5-cyano-2-((trans-2-methoxycyclopentyl)oxy)phenyl)sulfamoyl)-4-cyclopropylbenzoic acid], the half-inhibitory concentration (IC50) is below 1 nM.

Consider `N#Cc1cc(NS(=O)(=O)c2cc(C(=O)O)ccc2C2CC2)c(OC2CCCC2F)cc1Cl` (racemic) [Example 86, 3-(N-(4-chloro-5-cyano-2-((trans-2-fluorocyclopentyl)oxy)phenyl)sulfamoyl)-4-cyclopropylbenzoic acid], for which the 50% inhibitory concentration (IC50) is below 1 nM.

With `CC1CCCC1Oc1cc(Cl)c(C#N)cc1NS(=O)(=O)c1cc(C(=O)O)ccc1C1CC1` (racemic) [Example 90, 3-(N-(4-chloro-5-cyano-2-((trans-2-methylcyclopentyl)oxy)phenyl)sulfamoyl)-4-cyclopropylbenzoic acid], the IC50 was below 1 nM.

Regarding `N#Cc1cc(NS(=O)(=O)c2cc(C(=O)O)ccc2C2CC2)c(OC2CCCC2O)cc1Cl` (racemic) [Example 98, 3-(N-(4-chloro-5-cyano-2-((cis-2-hydroxycyclopentyl)oxy)phenyl)sulfamoyl)-4-cyclopropylbenzoic acid], the IC50 was below 1 nM.

With `COC1CCCC1Oc1cc(Cl)c(C#N)cc1NS(=O)(=O)c1cc(C(=O)O)ccc1C1CC1` (racemic) [Example 102, 3-(N-(4-chloro-5-cyano-2-((cis-2-methoxycyclopentyl)oxy)phenyl)sulfa-moyl)-4-cyclopropylbenzoic acid], the IC50 was below 1 nM.

For the molecule `CC1CCCC1Oc1cc(Cl)c(C#N)cc1NS(=O)(=O)c1cc(C(=O)O)ccc1C1CC1` (racemic) [Example 105, 3-(N-(4-chloro-5-cyano-2-((cis-2-methylcyclopentyl)oxy)-phenyl)sulfamoyl)-4-cyclopropylbenzoic acid], the IC50 is below 1 nM.

Take `N#Cc1cc(NS(=O)(=O)c2cc(C(=O)O)ccc2C2CC2)c(OC2CCC(O)C2)cc1Cl` (racemic) [Example 110, 3-(N-(4-chloro-5-cyano-2-((cis-3-hydroxycyclopentyl)oxy)phenyl)sulfa-moyl)-4-cyclopropylbenzoic acid]: the IC50 is below 1 nM.

As to `N#Cc1cc(NS(=O)(=O)c2cc(C(=O)O)ccc2C2CC2)c(OC2CCC(O)C2)cc1Cl` (racemic) [Example 111, 3-(N-(4-chloro-5-cyano-2-((trans-3-hydroxycyclopentyl)oxy)phenyl)sulfa-moyl)-4-cyclopropylbenzoic acid], the IC50 lay in the range of 1 to 5 nM.

As to `N#Cc1cc(NS(=O)(=O)c2cc(C(=O)O)ccc2C2CC2)c(OC2CCC2O)cc1Cl` (racemic) [Example 113, 3-(N-(4-chloro-5-cyano-2-(cis-2-hydroxycyclobutoxy)phenyl)sulfamoyl)-4-cyclopropylbenzoic acid], the 50% inhibitory concentration (IC50) is below 1 nM.

Turning to `N#Cc1cc(NS(=O)(=O)c2cc(C(=O)O)ccc2C2CC2)c(OC2CCC2O)cc1Cl` (racemic) [Example 118, 3-(N-(4-chloro-5-cyano-2-(trans-2-hydroxycyclobutoxy)phenyl)sulfamoyl)-4-cyclopropylbenzoic acid], the IC50 is below 1 nM.

On to `COC1CCC1Oc1cc(Cl)c(C#N)cc1NS(=O)(=O)c1cc(C(=O)O)ccc1C1CC1` (racemic) [Example 119, 3-(N-(4-chloro-5-cyano-2-(trans-2-methoxycyclobutoxy)phenyl)sulfamoyl)-4-cyclopropylbenzoic acid], for which the half-maximal inhibitory concentration (IC50) was below 1 nM.

For the molecule `COC1CCC1Oc1cc(Cl)c(C#N)cc1NS(=O)(=O)c1cc(C(=O)O)ccc1C1CC1` (racemic) [Example 137, 3-(N-(4-chloro-5-cyano-2-(cis-2-methoxycyclobutoxy)phenyl)sulfamoyl)-4-cyclopropylbenzoic acid], the IC50 was below 1 nM.

Turning to `N#Cc1cc(NS(=O)(=O)c2cc(C(=O)O)ccc2C2CC2)c(OC2CCC23CCC3)cc1Cl` (single isomer, unassigned) [Example 91, 3-(N-(4-chloro-5-cyano-2-(spiro[3.3]heptan-1-yloxy)phenyl)sulfamoyl)-4-cyclopropylbenzoic acid], the IC50 lay in the range of 1 to 5 nM.

As for `N#Cc1cc(NS(=O)(=O)c2cc(C(=O)O)ccc2C2CC2)c(OC2CCC23CCC3)cc1Cl` (single isomer, unassigned) [Example 92, 3-(N-(4-chloro-5-cyano-2-(spiro[3.3]heptan-1-yloxy)phenyl)sulfamoyl)-4-cyclopropylbenzoic acid], the IC50 is below 1 nM.

Take `CC1(C)CCC1Oc1cc(Cl)c(C#N)cc1NS(=O)(=O)c1cc(C(=O)O)ccc1C1CC1` (single isomer, unassigned) [Example 93, 3-(N-(4-chloro-5-cyano-2-(2,2-dimethylcyclobutoxy)phenyl)-sulfamoyl)-4-cyclopropylbenzoic acid]: the IC50 lay within 1 to 5 nM.

`CC1(C)CCC1Oc1cc(Cl)c(C#N)cc1NS(=O)(=O)c1cc(C(=O)O)ccc1C1CC1` (single isomer, unassigned) [Example 94, 3-(N-(4-chloro-5-cyano-2-(2,2-dimethylcyclobutoxy)phenyl)-sulfamoyl)-4-cyclopropylbenzoic acid]: the half-maximal inhibitory concentration (IC50) was below 1 nM.

`CC1CCCC1Oc1cc(Cl)c(C#N)cc1NS(=O)(=O)c1cc(C(=O)O)ccc1C1CC1` (single isomer, unassigned) [Example 99, 3-(N-(4-chloro-5-cyano-2-((trans-2-methylcyclopentyl)oxy)-phenyl)sulfamoyl)-4-cyclopropylbenzoic acid]: the IC50 was below 1 nM.

Regarding `CC1CCCC1Oc1cc(Cl)c(C#N)cc1NS(=O)(=O)c1cc(C(=O)O)ccc1C1CC1` (single isomer, unassigned) [Example 100, 3-(N-(4-chloro-5-cyano-2-((trans-2-methylcyclopentyl)oxy)-phenyl)sulfamoyl)-4-cyclopropylbenzoic acid], the IC50 was below 1 nM.

`COC1CCCC1Oc1cc(Cl)c(C#N)cc1NS(=O)(=O)c1cc(C(=O)O)ccc1C1CC1` (single isomer, unassigned) [Example 103, 3-(N-(4-chloro-5-cyano-2-((trans-2-methoxycyclopentyl)-oxy)phenyl)sulfamoyl)-4-cyclopropylbenzoic acid]: the IC50 was below 1 nM.

Consider `COC1CCCC1Oc1cc(Cl)c(C#N)cc1NS(=O)(=O)c1cc(C(=O)O)ccc1C1CC1` (single isomer, unassigned) [Example 104, 3-(N-(4-chloro-5-cyano-2-((trans-2-methoxycyclopentyl)-oxy)phenyl)sulfamoyl)-4-cyclopropylbenzoic acid], for which the half-maximal inhibitory concentration (IC50) was above 5 nM.

Turning to `N#Cc1cc(NS(=O)(=O)c2cc(C(=O)O)ccc2C2CC2)c(OC2CCC23CC3)cc1Cl` (single isomer, unassigned) [Example 106, 3-(N-(4-chloro-5-cyano-2-(spiro[2.3]hexan-4-yloxy)phenyl)-sulfamoyl)-4-cyclopropylbenzoic acid], the IC50 was below 1 nM.
